Our source for the Ki and Km values is publication PMC4434044, “Influence of terpenoids and acarbose on glycosyltransferases produced by strain Leuconostoc mesenteroides URE 13” (Biotechnology, Biotechnological Equipment, 2014).

Experiment [1] deals with T1, dextransucrase from Leuconostoc mesenteroides URE 13.
T1 construct: native extracellular enzyme, 180 kDa, from sucrose-grown culture; PEG 1500 precipitation and Sepharose CL-6B size-exclusion
Description: fructose/glucose release from sucrose, coupled hexokinase assay; Lineweaver-Burk. Type of experiment: biochemical. The following applies: 1-200 mmol sucrose, 20 mmol/L sodium acetate pH 5.2, 30 °C, inhibition mode not stated.

Experiment [2] deals with T1, dextransucrase from Leuconostoc mesenteroides URE 13. Description: fructose/glucose release from sucrose, coupled hexokinase assay. It counts as biochemical. The note with it: 20 mmol/L sodium acetate pH 5.2-5.3, 30 °C; substrate inhibition above 200 mmol.
Where [3] appears, read: terpenoid dissolved in DMSO (20% final).

As to `C[C@H]1O[C@H](O[C@H]2[C@H](O)[C@@H](O)[C@@H](O[C@H]3[C@H](O)[C@@H](O)C(O)O[C@@H]3CO)O[C@@H]2CO)[C@H](O)[C@@H](O)[C@@H]1N[C@H]1C=C(CO)[C@@H](O)[C@H](O)[C@H]1O` (stereo partly shown) [acarbose], in experiment [1], the Ki worked out at 0.29 mmol.
Consider `OC[C@H]1O[C@@](CO)(O[C@H]2O[C@H](CO)[C@@H](O)[C@H](O)[C@H]2O)[C@@H](O)[C@@H]1O` [sucrose], for which, in experiment [2], the Km is 18.0 mmol.
Regarding `C[C@H]1[C@H](C)CC[C@]2(C(=O)O)CC[C@]3(C)C(=CC[C@@H]4[C@@]5(C)CC[C@H](O)C(C)(C)[C@@H]5CC[C@]43C)[C@H]12` [ursolic acid], the Ki in experiment [1] (setting [3]) is 0.37 mmol.
On the same count and under the same terms, for `CC(=O)OC1C=CC2C(=O)OCC23CCC2C(=O)OC(c4ccoc4)C(OC(C)=O)C2(C)C13` (stereo not shown) [splendidin] the value was 0.28 mmol.
